# According to ChEMBL document CHEMBL3046274, “Toxicity of imidacloprid to developmental stages of Rhynchophorus ferrugineus (Curculionidae: Coleoptera): Laboratory and field tests” (Crop Prot, 2006):
# What was measured:
# Format in all cases: functional
# [1] = test system: Rhynchophorus ferrugineus; assay: Pesticidal activity against Rhynchophorus ferrugineus (red palm weevil) larvae infested date palm trees assessed as mortality at 2.5 ml/l applied through soil-drench irrigation 1 week after infestation measured on day 20 post-treatment relative to control
# [2] = test system: Rhynchophorus ferrugineus; assay: Pesticidal activity against adult Rhynchophorus ferrugineus (red palm weevil) assessed as mortality at 2 ppm, po at 48 hr post-treatment relative to control
# [3] = test system: Rhynchophorus ferrugineus; assay: Pesticidal activity against Rhynchophorus ferrugineus (red palm weevil) cocoon assessed as mortality at 1 ppm administered by dipping for 3 min measured at 24 hr post-treatment relative to control
# [4] = test system: Rhynchophorus ferrugineus; assay: Pesticidal activity against adult Rhynchophorus ferrugineus (red palm weevil) assessed as mortality at 1000 ppm administered topically at 36 hr post-treatment
# [5] = test system: Rhynchophorus ferrugineus; assay: Contact toxicity against Rhynchophorus ferrugineus (red palm weevil) adults assessed as time required for 100% reversible knockdown at 3.5 ml/l for 2 min
# [6] = test system: Rhynchophorus ferrugineus; assay: Pesticidal activity against adult Rhynchophorus ferrugineus (red palm weevil) assessed as mortality at 500 ppm administered topically at 36 hr post-treatment
# [7] = test system: Rhynchophorus ferrugineus; assay: Pesticidal activity against adult Rhynchophorus ferrugineus (red palm weevil) assessed as mortality at 100 ppm administered topically at 18 hr post-treatment
# [8] = test system: Rhynchophorus ferrugineus; assay: Pesticidal activity against Rhynchophorus ferrugineus (red palm weevil) cocoon assessed as mortality at 0.5 ppm administered by dipping for 3 min measured at 48 hr post-treatment relative to control
# [9] = test system: Rhynchophorus ferrugineus; assay: Pesticidal activity against Rhynchophorus ferrugineus (red palm weevil) larvae infested date palm trees assessed as mortality at 2.5 ml/l applied through soil-drench irrigation 1 week after infestation measured on day 30 post-treatment relative to control
# [10] = test system: Rhynchophorus ferrugineus; assay: Pesticidal activity against Rhynchophorus ferrugineus (red palm weevil) cocoon assessed as mortality at 20 ppm administered by dipping for 3 min measured at 48 hr post-treatment relative to control
# [11] = test system: Rhynchophorus ferrugineus; assay: Pesticidal activity against Rhynchophorus ferrugineus (red palm weevil) larvae assessed as mortality at 1.5 ppm, po at 90 hr post-treatment relative to control
# [12] = test system: Rhynchophorus ferrugineus; assay: Contact toxicity against Rhynchophorus ferrugineus (red palm weevil) adults assessed as time required for 100% mortality at 2.5 ml/l for 2 min
# [13] = test system: Rhynchophorus ferrugineus; assay: Contact toxicity against Rhynchophorus ferrugineus (red palm weevil) adults assessed as time required for 100% mortality at 1.5 ml/l for 2 min
# [14] = test system: Rhynchophorus ferrugineus; assay: Contact toxicity against Rhynchophorus ferrugineus (red palm weevil) adults assessed as time required for 100% reversible knockdown at 3.5 ml/l for 5 min
# [15] = test system: Rhynchophorus ferrugineus; assay: Pesticidal activity against adult Rhynchophorus ferrugineus (red palm weevil) infested date palm tree assessed as mortality of collected live stage at 20 ml/4l of water applied through soil-drench irrigation measured after 3 weeks relative to control
# [16] = test system: Rhynchophorus ferrugineus; assay: Pesticidal activity against Rhynchophorus ferrugineus (red palm weevil) larvae assessed as mortality at 300 ppm administered topically at 36 hr post-treatment
# [17] = test system: Rhynchophorus ferrugineus; assay: Pesticidal activity against adult Rhynchophorus ferrugineus (red palm weevil) assessed as time required for reversible knockdown at 1.5 ml/l administered topically
# [18] = test system: Rhynchophorus ferrugineus; assay: Pesticidal activity against adult Rhynchophorus ferrugineus (red palm weevil) assessed as mortality at 1000 ppm administered topically at 72 hr post-treatment
compound,measurement,setting,value
O=[N+]([O-])/N=C1\NCCN1Cc1ccc(Cl)nc1 [IMIDACLOPRID],Activity,[1],100%
same,Activity,[2],100%
same,Activity,[3],0%
same,Activity,[4],100%
same,Time,[5],3.2 days
same,Activity,[6],72.2%
same,Activity,[7],0%
same,Activity,[8],0%
same,Activity,[9],94.4%
same,Activity,[10],44.4%
same,Activity,[11],100%
same,Time,[12],13.1 days
same,Time,[13],18 days
same,Time,[14],2.1 days
same,Activity,[15],100%
same,Activity,[16],0%
same,Time,[17],4 days
same,Activity,[18],100%
